Read-outs that look alike come from different tables or passages of the source.
Legend:
Type in all cases: biochemical
Lck = molecular target: T1, Lck (Homo sapiens, UniProt P06239); experiment: Kinase inhibition assay (33P transfer), Lck; details: read-out: Lck-1
T1 construct: Kinases are expressed as either kinase domains or full length constructs; made in house
How it was run: (§1)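 Filterless plate radiometric format: immobilized poly(Glu,Tyr) 4:1 or poly(Arg,Ser) 3:1, 33P-labelled ATP, tagged recombinant kinase (some with regulatory partners). Incorporated label counted after phosphoric acid wash.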

Tek = molecular target: T2, Tek (Homo sapiens, UniProt Q02763); experiment: Kinase inhibition assay (33P transfer), Tek; details: read-out: Tek-1
T2 construct: Kinases are expressed as either kinase domains or full length constructs; made in house
How it was run: (§2)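 Radiometric format: recombinant tagged kinase (catalytic domain or whole protein, sometimes combined with regulatory polypeptides) phosphorylates immobilised poly(Glu,Tyr) 4:1 or poly(Arg,Ser) 3:1 using [33P]ATP. Wells are washed in 0.5% phosphoric acid, then counted. IC50 is taken where substrate labelling falls by half.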

EGFR = molecular target: T3, EGFR (Homo sapiens, UniProt P00533); experiment: Kinase inhibition assay (33P transfer), EGFR; details: Table 2, kinase inhibition class; read-out: EGFR-1
T3 construct: Kinases are expressed as either kinase domains or full length constructs; made in house
How it was run: as §2

Zap-70 = molecular target: T4, Zap-70 (Homo sapiens, UniProt P43403); experiment: Kinase inhibition assay (33P transfer), Zap-70; details: read-out: Zap-1
T4 construct: Kinases are expressed as either kinase domains or full length constructs; made in house
T4 sequence (P43403 1-619): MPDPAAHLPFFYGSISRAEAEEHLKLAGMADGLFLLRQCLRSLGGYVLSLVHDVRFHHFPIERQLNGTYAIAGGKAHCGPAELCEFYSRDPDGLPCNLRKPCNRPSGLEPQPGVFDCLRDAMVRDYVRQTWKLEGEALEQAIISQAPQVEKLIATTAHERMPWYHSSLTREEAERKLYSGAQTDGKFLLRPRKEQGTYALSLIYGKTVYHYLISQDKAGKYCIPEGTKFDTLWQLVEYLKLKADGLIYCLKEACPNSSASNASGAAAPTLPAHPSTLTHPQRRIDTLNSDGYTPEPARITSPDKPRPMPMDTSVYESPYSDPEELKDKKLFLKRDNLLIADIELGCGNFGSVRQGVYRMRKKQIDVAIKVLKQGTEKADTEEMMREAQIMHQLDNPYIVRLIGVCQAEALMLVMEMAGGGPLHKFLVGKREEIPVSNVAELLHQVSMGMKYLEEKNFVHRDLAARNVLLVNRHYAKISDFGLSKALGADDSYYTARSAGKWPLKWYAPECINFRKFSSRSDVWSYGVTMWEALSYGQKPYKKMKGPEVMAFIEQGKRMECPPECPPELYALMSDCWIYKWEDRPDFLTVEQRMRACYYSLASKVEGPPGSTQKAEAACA
How it was run: as §1

ErbB2 = molecular target: T5, ErbB2 (Homo sapiens, UniProt P04626); experiment: Kinase inhibition assay (33P transfer), ErbB2; details: read-out: ErbB2-2
T5 construct: Kinases are expressed as either kinase domains or full length constructs; made in house
Description: The inhibitor compounds described herein are screened in the following manner. Kinases suitable for use in the following protocol to determine kinase activity of the compounds described herein include, -but are not limited to: Lck, Lyn, Src, Fyn, Syk, Zap-70, Itk, Tec, Btk, EGFR, ErbB2, Kdr, Flt-1, Flt-3, Tek, c-Met, InsR, and AKT.
Kinases are expressed as either kinase domains or full length constructs fused to glutathione S-transferase (GST) or polyHistidine tagged fusion proteins in either E. colior Baculovirus-High Five expression systems. They are purified to near homogeneity by affinity chromatography essentially as previously described (Lehr et al., 1996; Gish et al., 1995). In some instances, kinases are co-expressed or mixed with purified or partially purified regulatory polypeptides prior to measurement of activity.
Kinase activity and inhibition are measured essentially by established protocols (Braunwalder et al., 1996). Briefly, The transfer of ^33PO4 from ATP to the synthetic substrates poly(Glu, Tyr) 4:1 or poly(Arg, Ser) 3:1 attached to the bioactive surface of microtiter plates serves as the basis to evaluate enzyme activity. After an incubation period, the amount of phosphate transferred is measured by first washing the plate with 0.5% phosphoric acid, adding liquid scintillant, and then counting in a liquid scintillation detector. The IC50 is determined by the concentration of compound that causes a 50% reduction in the amount of […] incorporated onto the substrate bound to the plate.

Kdr = molecular target: T6, Kdr (Homo sapiens, UniProt P35968); experiment: Kinase inhibition assay (33P transfer), Kdr; details: read-out: KDR-1
T6 construct: Kinases are expressed as either kinase domains or full length constructs; made in house
How it was run: as §1

AKT = molecular target: T7, AKT (Homo sapiens, UniProt Q9Y243); experiment: Kinase inhibition assay (33P transfer), AKT; details: Table 2, kinase inhibition class; read-out: AKT3-1
T7 construct: Kinases are expressed as either kinase domains or full length constructs; made in house
How it was run: as §1

Itk = molecular target: T8, Itk (Homo sapiens, UniProt Q08881); experiment: Kinase inhibition assay (33P transfer), Itk; details: read-out: Itk-1
T8 construct: Kinases are expressed as either kinase domains or full length constructs; made in house
T8 sequence (Q08881 1-620): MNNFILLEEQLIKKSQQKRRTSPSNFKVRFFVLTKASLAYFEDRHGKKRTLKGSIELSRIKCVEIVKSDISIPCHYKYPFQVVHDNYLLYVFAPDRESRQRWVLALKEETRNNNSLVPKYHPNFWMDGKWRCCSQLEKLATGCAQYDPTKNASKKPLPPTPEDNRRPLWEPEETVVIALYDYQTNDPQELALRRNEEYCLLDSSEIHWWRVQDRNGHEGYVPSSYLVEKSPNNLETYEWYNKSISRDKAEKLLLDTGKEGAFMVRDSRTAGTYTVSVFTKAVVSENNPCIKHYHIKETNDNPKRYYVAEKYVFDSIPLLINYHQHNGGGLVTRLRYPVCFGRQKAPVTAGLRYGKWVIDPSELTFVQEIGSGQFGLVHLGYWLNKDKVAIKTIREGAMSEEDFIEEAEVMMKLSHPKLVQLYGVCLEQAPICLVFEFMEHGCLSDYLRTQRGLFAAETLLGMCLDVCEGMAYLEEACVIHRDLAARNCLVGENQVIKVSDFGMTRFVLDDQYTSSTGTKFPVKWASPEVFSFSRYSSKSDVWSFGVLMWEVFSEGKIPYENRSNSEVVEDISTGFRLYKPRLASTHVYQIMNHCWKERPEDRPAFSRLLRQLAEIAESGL
How it was run: as §2

c-Met = molecular target: T9, c-Met (Homo sapiens, UniProt P08581); experiment: Kinase inhibition assay (33P transfer), c-Met; details: Table 2, kinase inhibition class; read-out: Met-1
T9 construct: Kinases are expressed as either kinase domains or full length constructs; made in house
How it was run: as §2

IGFR-1 = molecular target: T10, IGFR-1 (Homo sapiens, UniProt P08069); experiment: Kinase inhibition assay, IGFR-1 (Table 2); details: Table 2, kinase inhibition class
T10 construct: Kinases are expressed as either kinase domains or full length constructs; made in house

PDGFRB = molecular target: T11, PDGFRB (Homo sapiens, UniProt P09619); experiment: Kinase inhibition assay (33P transfer), PDGFRB; details: read-out: PDGFRB-1
T11 construct: Kinases are expressed as either kinase domains or full length constructs; made in house

T1 sequence (P06239 whole entry, species assumed, the tested form may be a part): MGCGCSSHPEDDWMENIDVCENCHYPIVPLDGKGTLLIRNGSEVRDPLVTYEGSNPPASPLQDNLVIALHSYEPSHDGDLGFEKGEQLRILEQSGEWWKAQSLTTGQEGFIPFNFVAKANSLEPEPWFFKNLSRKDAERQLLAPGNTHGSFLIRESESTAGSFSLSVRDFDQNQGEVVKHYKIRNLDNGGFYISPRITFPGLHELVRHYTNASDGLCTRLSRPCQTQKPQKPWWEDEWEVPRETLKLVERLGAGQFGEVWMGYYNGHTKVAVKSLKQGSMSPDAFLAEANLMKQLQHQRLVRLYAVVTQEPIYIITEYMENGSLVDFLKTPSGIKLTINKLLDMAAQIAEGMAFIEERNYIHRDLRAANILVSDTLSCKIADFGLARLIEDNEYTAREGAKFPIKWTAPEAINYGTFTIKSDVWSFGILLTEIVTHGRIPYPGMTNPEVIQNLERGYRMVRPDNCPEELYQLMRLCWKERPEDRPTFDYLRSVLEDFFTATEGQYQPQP
T5 sequence (P04626 23-1255, species assumed): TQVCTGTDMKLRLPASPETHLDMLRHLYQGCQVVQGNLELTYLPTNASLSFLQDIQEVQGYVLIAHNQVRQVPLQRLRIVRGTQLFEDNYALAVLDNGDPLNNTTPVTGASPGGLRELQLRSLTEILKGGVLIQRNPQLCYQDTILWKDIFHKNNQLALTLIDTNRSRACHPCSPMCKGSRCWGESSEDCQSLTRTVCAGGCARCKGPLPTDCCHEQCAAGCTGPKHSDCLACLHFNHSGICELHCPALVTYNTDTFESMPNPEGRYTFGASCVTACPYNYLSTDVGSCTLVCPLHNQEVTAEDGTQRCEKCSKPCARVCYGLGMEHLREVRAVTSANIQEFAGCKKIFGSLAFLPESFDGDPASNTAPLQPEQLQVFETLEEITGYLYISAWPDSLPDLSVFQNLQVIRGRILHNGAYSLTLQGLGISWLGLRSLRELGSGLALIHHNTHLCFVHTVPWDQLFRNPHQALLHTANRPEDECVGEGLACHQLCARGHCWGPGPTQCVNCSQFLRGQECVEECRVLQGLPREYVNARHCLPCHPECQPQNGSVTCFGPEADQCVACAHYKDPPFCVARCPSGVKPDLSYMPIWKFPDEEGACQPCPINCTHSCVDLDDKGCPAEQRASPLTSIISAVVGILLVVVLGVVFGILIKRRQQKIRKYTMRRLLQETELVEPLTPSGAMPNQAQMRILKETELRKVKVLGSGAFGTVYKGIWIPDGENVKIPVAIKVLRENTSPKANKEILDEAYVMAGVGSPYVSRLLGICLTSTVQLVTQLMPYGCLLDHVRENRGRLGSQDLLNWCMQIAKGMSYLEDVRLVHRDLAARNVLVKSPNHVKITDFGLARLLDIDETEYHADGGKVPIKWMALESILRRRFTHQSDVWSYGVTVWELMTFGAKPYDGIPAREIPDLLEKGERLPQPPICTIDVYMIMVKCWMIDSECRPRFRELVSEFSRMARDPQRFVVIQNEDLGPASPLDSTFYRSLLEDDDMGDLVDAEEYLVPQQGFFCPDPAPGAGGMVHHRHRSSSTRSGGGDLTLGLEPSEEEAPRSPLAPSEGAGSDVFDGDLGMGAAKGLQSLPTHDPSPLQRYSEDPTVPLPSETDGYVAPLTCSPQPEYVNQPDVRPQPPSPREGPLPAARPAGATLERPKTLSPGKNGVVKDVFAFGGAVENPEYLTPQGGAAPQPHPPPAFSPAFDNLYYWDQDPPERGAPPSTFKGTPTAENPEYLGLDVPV
T2 sequence (Q02763 23-1124, species assumed): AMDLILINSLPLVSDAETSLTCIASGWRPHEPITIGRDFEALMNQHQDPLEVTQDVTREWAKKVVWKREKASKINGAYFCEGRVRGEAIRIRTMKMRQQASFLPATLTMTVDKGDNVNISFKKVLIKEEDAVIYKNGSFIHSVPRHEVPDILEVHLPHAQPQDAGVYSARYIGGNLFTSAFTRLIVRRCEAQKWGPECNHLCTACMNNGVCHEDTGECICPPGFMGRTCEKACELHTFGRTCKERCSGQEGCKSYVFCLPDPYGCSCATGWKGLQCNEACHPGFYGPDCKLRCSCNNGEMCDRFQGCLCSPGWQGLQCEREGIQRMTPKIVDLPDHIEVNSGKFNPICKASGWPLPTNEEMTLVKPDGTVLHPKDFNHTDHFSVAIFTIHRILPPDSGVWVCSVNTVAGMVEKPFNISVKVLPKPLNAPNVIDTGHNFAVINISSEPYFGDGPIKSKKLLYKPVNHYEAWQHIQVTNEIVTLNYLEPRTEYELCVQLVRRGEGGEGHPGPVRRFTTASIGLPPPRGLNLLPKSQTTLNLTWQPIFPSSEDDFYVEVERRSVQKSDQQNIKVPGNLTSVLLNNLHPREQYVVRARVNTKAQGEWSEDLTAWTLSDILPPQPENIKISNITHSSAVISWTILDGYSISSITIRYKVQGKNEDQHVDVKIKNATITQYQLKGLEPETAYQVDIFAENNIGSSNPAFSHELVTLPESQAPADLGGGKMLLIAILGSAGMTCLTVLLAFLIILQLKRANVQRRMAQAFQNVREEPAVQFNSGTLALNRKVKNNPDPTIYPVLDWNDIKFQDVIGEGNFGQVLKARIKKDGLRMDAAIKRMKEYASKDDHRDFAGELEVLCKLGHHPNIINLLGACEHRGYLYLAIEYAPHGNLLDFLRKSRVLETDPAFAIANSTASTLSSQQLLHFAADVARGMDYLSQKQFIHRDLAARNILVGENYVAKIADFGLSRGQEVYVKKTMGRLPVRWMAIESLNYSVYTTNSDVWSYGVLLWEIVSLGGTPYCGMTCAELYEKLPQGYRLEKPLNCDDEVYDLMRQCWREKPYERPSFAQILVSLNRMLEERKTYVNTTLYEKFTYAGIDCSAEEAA
T3 sequence (P00533 25-1210, species assumed): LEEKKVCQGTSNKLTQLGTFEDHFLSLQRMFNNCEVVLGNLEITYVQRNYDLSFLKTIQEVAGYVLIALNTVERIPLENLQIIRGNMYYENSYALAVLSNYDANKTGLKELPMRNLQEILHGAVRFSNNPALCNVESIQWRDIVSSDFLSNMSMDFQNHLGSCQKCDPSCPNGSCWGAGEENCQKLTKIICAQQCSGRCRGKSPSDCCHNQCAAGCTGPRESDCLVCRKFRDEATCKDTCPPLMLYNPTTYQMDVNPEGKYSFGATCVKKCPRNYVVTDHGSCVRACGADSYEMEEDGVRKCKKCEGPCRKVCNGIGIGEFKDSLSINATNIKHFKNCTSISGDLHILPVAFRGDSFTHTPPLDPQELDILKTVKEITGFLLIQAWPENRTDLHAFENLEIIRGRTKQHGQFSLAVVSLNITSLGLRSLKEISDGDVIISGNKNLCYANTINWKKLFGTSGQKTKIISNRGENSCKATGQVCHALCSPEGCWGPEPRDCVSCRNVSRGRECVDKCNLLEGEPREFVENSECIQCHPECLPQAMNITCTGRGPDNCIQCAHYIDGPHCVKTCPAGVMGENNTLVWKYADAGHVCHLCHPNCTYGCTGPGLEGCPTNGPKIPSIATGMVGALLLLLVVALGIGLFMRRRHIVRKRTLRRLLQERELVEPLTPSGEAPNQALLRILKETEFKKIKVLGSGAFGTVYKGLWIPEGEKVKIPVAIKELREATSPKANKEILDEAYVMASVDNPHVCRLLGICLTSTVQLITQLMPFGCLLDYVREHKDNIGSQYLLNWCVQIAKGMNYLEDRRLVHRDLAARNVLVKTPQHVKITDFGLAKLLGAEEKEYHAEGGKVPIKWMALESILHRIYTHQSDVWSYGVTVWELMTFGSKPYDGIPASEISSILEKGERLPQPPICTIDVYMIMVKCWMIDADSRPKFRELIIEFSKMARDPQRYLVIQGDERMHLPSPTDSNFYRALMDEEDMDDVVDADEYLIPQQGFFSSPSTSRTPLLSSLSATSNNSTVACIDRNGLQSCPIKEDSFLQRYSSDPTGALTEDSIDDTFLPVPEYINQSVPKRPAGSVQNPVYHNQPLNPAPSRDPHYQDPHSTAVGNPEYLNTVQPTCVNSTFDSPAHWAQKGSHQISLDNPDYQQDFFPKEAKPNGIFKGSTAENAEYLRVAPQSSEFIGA
T7 sequence (Q9Y243 whole entry, the tested form may be a part): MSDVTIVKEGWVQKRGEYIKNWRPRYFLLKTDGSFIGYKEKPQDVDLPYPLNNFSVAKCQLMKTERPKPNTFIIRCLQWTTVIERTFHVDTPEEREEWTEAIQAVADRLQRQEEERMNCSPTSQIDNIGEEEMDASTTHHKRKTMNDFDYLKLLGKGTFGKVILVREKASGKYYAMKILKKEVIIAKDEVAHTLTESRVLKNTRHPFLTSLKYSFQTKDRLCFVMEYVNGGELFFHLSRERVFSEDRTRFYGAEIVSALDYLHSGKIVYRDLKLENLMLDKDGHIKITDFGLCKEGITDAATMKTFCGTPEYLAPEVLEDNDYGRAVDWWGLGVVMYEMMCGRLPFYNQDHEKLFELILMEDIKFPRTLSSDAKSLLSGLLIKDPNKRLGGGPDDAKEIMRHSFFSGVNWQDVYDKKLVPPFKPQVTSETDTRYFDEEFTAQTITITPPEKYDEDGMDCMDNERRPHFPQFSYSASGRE

Row | Structure (SMILES) | IC50 (Lck) | IC50 (Tek) | IC50 (EGFR) | IC50 (Zap-70) | IC50 (ErbB2) | IC50 (Kdr) | IC50 (AKT) | IC50 (Itk) | IC50 (c-Met) | IC50 (IGFR-1) | IC50 (PDGFRB) | IC50 (Lck; Table 3) | IC50 (Zap-70; Table 3) | IC50 (Kdr; Table 3) | IC50 (Itk; Table 3)
1 | NC(=O)c1ccccc1Nc1ncnc(-n2c(N)nc3ccccc32)n1 [Compound 473] | 6.93 to 10.1 µM | > 13 µM | > 13 µM | 10.1 to 13 µM | 10.1 to 13 µM | 10.1 to 13 µM | > 13 µM | > 13 µM | 10.1 to 13 µM | 6.93 to 10.1 µM |  |  |  |  | 
2 | COc1cc(Nc2ncnc(Nc3cc(-c4ccc(C)cc4)n[nH]3)n2)cc(OC)c1OC [Compound 521] | < 0.923 µM | > 10.4 µM | 0.923 to 5.54 µM | > 10.4 µM | 0.923 to 5.54 µM | < 0.923 µM | > 10.4 µM | 0.923 to 5.54 µM | < 0.923 µM | < 0.923 µM |  |  |  |  | 
3 | COc1ccc(Nc2ncnc(Nc3cccc(-c4ccnc(C)n4)c3)n2)cc1OC [Compound 789] | 0.963 to 5.78 µM |  | > 10.8 µM | > 10.8 µM |  | > 10.8 µM | > 10.8 µM | > 10.8 µM | > 10.8 µM | 0.963 to 5.78 µM | 5.78 to 8.42 µM |  |  |  | 
4 | COc1cc(Nc2ncnc(Nc3cc(-c4cccc(C)c4)n[nH]3)n2)cc(OC)c1OC [Compound 1001] | < 0.923 µM | > 10.4 µM | 0.923 to 5.54 µM | > 10.4 µM | 0.923 to 5.54 µM | 0.923 to 5.54 µM | > 10.4 µM | 0.923 to 5.54 µM | < 0.923 µM | < 0.923 µM |  |  |  |  | 
5 | COC(=O)c1cc(OC)c(OC)cc1Nc1ncnc(-n2c(N)nc3ccccc32)n1 [Compound 476] | > 10.7 µM | > 10.7 µM | > 10.7 µM | > 10.7 µM | 5.7 to 8.31 µM | 8.31 to 10.7 µM | > 10.7 µM | > 10.7 µM | > 10.7 µM | 0.949 to 5.7 µM |  |  |  |  | 
6 | COc1cc(Nc2ncnc(Nc3cc(-c4cccc(C(F)(F)F)c4)n[nH]3)n2)cc(OC)c1OC [Compound 1000] | 0.821 to 4.92 µM | > 9.23 µM | 4.92 to 7.18 µM | > 9.23 µM | 4.92 to 7.18 µM | 0.821 to 4.92 µM | 7.18 to 9.23 µM | > 9.23 µM | 4.92 to 7.18 µM | 0.821 to 4.92 µM |  |  |  |  | 
7 | COc1cc(Nc2ncnc(-n3c(NCCCc4ccccc4)nc4ccccc43)n2)cc(OC)c1OC [Compound 945] | 6.84 to 8.8 µM | > 8.8 µM | > 8.8 µM | > 8.8 µM |  | 0.782 to 4.69 µM | > 8.8 µM | > 8.8 µM | > 8.8 µM |  |  |  |  |  | 
8 | Nc1ncnc(-n2c(N)nc3ccccc32)n1 [Compound 646] | > 19.8 µM | > 19.8 µM | > 19.8 µM | > 19.8 µM |  | 1.76 to 10.6 µM | 1.76 to 10.6 µM | 10.6 to 15.4 µM | > 19.8 µM |  |  |  |  |  | 
9 | CC(C)(C)OC(=O)NCc1cccc(Nc2ncnc(Nc3cc(-c4ccco4)n[nH]3)n2)c1 [Compound 985] | 0.892 to 5.35 µM | 5.35 to 7.8 µM | 0.892 to 5.35 µM | > 10 µM |  | 0.892 to 5.35 µM | > 10 µM | 5.35 to 7.8 µM | 5.35 to 7.8 µM |  |  |  |  |  | 
10 | COc1cc(Nc2ncnc(-n3c(NCCc4ccncc4)nc4ccccc43)n2)cc(OC)c1OC [Compound 948] | 4.81 to 7.02 µM | > 9.03 µM | > 9.03 µM | > 9.03 µM |  | 0.802 to 4.81 µM | > 9.03 µM | 4.81 to 7.02 µM | > 9.03 µM |  |  |  |  |  | 
11 | COc1cc(Nc2ncnc(Nc3n[nH]c(Nc4ccc(Cl)cc4)n3)n2)cc(OC)c1OC [Compound 1003] | 0.851 to 5.11 µM | 0.851 to 5.11 µM | 5.11 to 7.45 µM | 5.11 to 7.45 µM |  | 0.851 to 5.11 µM | > 9.58 µM | 0.851 to 5.11 µM | 0.851 to 5.11 µM |  |  |  |  |  | 
12 | COc1cc(Nc2ncnc(Nc3nccs3)n2)cc(OC)c1OC [Compound 442] |  | > 12.5 µM | > 12.5 µM |  |  |  | > 12.5 µM |  | > 12.5 µM |  |  | > 12.5 µM | > 12.5 µM | 6.66 to 9.71 µM | > 12.5 µM
13 | COc1cc(C)c(Nc2ncnc(-n3c(N)nc4ccccc43)n2)cc1OC [Compound 524] | 6.36 to 9.27 µM | > 11.9 µM | > 11.9 µM | > 11.9 µM | 6.36 to 9.27 µM | 1.06 to 6.36 µM | > 11.9 µM | 9.27 to 11.9 µM | 6.36 to 9.27 µM | < 1.06 µM |  |  |  |  | 

Source: patent US7074789B2, “Kinase inhibitors” (Amgen Inc., priority 1999, dated 2006)
